Assay results from US12172989B2, “Histone acetyltransferase (HAT) inhibitor and use thereof” (SHANGHAI INSTITUTE OF MATERIA MEDICA, CHINESE ACADEMY OF …, priority 2018, dated 2024).

Key:
[1] = system: Human castration resistant prostate cancer cell line 22Rv1; test: Cell growth inhibition experiment (CellTiter-Glo), 22Rv1; assay type: cell-based; settings: 22Rv1 cells treated with the compound for 5 days
Experimental: (§1) Human castration resistant prostate cancer cell line 22Rv1 and LNCaP clone FGC (22Rv1 cell line was from ATCC, CRL-2505, LNCaP clone FGC cell line was purchased from Cell Bank of the Chinese Academy of Sciences) were cultured with RPMI 1640 medium (Gibco, available from Life Technologies Corporation, 22400-089) containing 10% fetal bovine serum (Gibco, available from Life Technologies, 10099-141) and 1% antibiotics (penicillin and streptomycin, available from Life Technologies Corporation, 10378016) in a CO2 cell incubator (37° C., 5% CO2). In the cell growth inhibition experiment, 22Rv1 and LNCaP clone FGC cells in exponential growth phase were seeded on a 96-well plate (purchased from Corning Company, 3599) with a volume of 150 μL/well and a cell density of 1,500 cells/well. After seeded, the plate was placed in a CO2 incubator to incubate overnight to allow the cells to adhere. On the next day, 50 μL of a compound at different concentrations diluted in 3-fold gradient or DMSO were added in a 96-well plate containing the cells. The final concentration of the compound ranges from 0.3 to 10000 nM, and the final concentration of DMSO is 0.05% as control group. The cells were treated by the compound for 5 days. Cell viability was measured using CellTiter-Glo reagent (purchased from Promega, G7572): the cell treated with the compound for 5 days was added with CellTiter-Glo reagent at 40 μL/well, incubated at room temperature for 10 min, transferred to a white 96-well plate (OptiPlate-96, purchased from PerkinElmer, 605299) by 70 μL. Subsequently, the luminescence signal was detected using a multifunctional microplate reader EnVision (purchased from PerkinElmer) at a wavelength of 400-700 nm. The data was analyzed by using GraphPad Prism 5.0 software to obtain IC50.

[2] = system: human mantle cell lymphoma (MCL) cell line MAVER-1; test: Cell growth inhibition experiment (CellTiter-Glo), MAVER-1; assay type: cell-based; settings: MAVER-1 cells treated with the compound for 5 days
Experimental: The human mantle cell lymphoma (MCL) cell line MAVER-1 (from ATCC, CRL-3008) was cultured with RPMI 1640 medium (Gibco, available from Life Technologies Corporation, 22400-089) containing […] (Gibco, available from Life Technologies, 10099-141) and 1% antibiotics (penicillin and streptomycin, available from Life Technologies Corporation, 10378016) in a CO2 cell incubator (37° C., 5% CO2). In the cell growth inhibition experiment, MAVER-1 cells in exponential growth phase were seeded on a 96-well plate (purchased from Corning Company, 3599) in a volume of 100 μL/well and a cell density of 1*10E5 cells/well. After seeded, the plate was placed in a CO2 incubator to culture for 1 h. 100 μL of a compound at different concentrations diluted in 3-fold gradient or DMSO were added in a 96-well plate containing the cells. The final concentration of the compound ranges from 0.3 to 10000 nM, and the final concentration of DMSO is 0.05% as control group. The cells were treated with the compound for 5 days. Cell viability was measured using CellTiter-Glo reagent (purchased from Promega, G7572): the cells treated with the compound for 5 days was added with CellTiter-Glo reagent at 20 μL/well, incubated at room temperature for 10 min, transferred to a white 96-well plate (OptiPlate-96, purchased from PerkinElmer, 605299) by 80 μL. Subsequently, the luminescence signal was detected by using a multifunctional microplate reader EnVision (purchased from PerkinElmer) at a wavelength of 400-700 nm. The data was analyzed by using GraphPad Prism 5.0 software to obtain IC50.

[3] = system: Human castration resistant prostate cancer cell line LNCaP clone FGC; test: Cell growth inhibition experiment (CellTiter-Glo), LNCaP clone FGC; assay type: cell-based; settings: LNCaP clone FGC cells treated with the compound for 5 days
Experimental: as §1

[4] = target: T1, histone acetyltransferase p300 (Homo sapiens, UniProt Q09472); test: Histone acetyltransferase (p300) activity assay (radioisotope, [3H]-Ac-CoA); assay type: biochemical; settings: p300 0.05 nM; histone peptide 600 nM, [3H]-Ac-CoA 250 nM; 60 min at room temperature; read-out: Inhibition rate IC50
T1 construct: purchased BPS Corporation 50071
T1 sequence (Q09472 1284-1673 limits assumed): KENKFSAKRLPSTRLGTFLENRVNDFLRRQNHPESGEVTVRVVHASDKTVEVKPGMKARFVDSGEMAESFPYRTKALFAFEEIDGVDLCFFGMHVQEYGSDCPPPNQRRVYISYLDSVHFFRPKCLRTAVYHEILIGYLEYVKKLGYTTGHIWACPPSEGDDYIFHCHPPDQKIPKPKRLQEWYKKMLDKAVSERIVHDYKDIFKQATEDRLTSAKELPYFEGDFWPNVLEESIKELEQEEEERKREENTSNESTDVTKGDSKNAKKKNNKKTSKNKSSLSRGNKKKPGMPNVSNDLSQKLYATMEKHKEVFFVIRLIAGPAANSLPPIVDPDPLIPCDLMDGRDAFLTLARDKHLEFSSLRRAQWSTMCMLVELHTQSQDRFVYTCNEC
Experimental: The reaction was finally terminated with Ac-CoA (Sigma, Cat. No. A2056) without isotope labeling. If the activity of the acetyltransferase p300 was inhibited, the isotope signal cannot be detected on the substrate polypeptide. Therefore, the inhibitory activity of the compound against the acetyltransferase p300 was evaluated.
In the enzyme reaction system, 200 nL of a diluted compound (100% DMSO) was first transferred to a test plate using Echo, where the final concentration of the compound in the enzyme reaction system ranges from 0.25 to 5000 nM. Then 10 μL/well of p300 protein (final concentration of 0.05 nM) was transferred therein, and incubated with the compound for 15 min at room temperature. Then 10 μL/well of a substrate mixture (final concentrations of histone peptide and [^3H]—Ac-CoA were 600 nM and 250 nM, respectively) was added to start the enzyme-catalyzed reaction, and incubated at room temperature for 60 min. Then 10 µL/well of a 250 μM cold Ac-CoA solution was added to stop the reaction. Finally 25 μL/well of the reaction solution was transferred to a 384-well Flashplate (Perkin Elmer, Cat. No. SMP410A001PK), and incubated at room temperature for 1 h. The resultant was washed with double distilled water+0.1% Tween-20 three times. The signal value was read by using Microbeta. The data was analyzed by using GraphPad Prism 5.0 software to obtain IC50.

Row | IC50 [1] | IC50 [2] | IC50 [3] | IC50 ([1]; Homo sapiens, 120 h) | IC50 ([2]; Homo sapiens, Maver1, 120 h) | IC50 ([3]; Homo sapiens, 120 h) | IC50 [4] | SMILES
1 | 384 nM | 206 nM | 215 nM | – | – | – | – | CNC(=O)Nc1ccc2c(c1)CC[C@@]21OC(=O)N(CC(=O)N(Cc2ccc(F)cc2)[C@@H](C)C(F)(F)F)C1=O [Example A-485, reference compound]
2 | – | – | – | 258 nM | 112 nM | 164 nM | – | CNC(=O)Nc1ccc2c(c1)CCC21OC(=O)N(CC(=O)N2Cc3ccccc3CCC2C)C1=O (stereo not drawn) [SYY-B003]
3 | – | – | – | 345 nM | 104 nM | 168 nM | 12 nM | CNC(=O)Nc1ccc2c(c1)CC[C@]21OC(=O)N(CC(=O)N2Cc3ccccc3CC[C@H]2C)C1=O [SYY-B015-1]
4 | – | – | – | 33 nM | 18 nM | 15 nM | 3.7 nM | CNC(=O)Nc1ccc2c(c1)CC[C@@]21OC(=O)N(CC(=O)N2Cc3ccccc3CC[C@H]2C)C1=O [SYY-B015-2]
5 | – | – | – | 88 nM | 49 nM | 73 nM | 3.3 nM | CNC(=O)Nc1ccc2c(c1)CC[C@]21OC(=O)N(CC(=O)N2Cc3ccccc3CC[C@H]2C2CC2)C1=O [SYY-B018-1]
6 | – | – | – | 5 nM | 6 nM | 6 nM | 0.67 nM | CNC(=O)Nc1ccc2c(c1)CC[C@@]21OC(=O)N(CC(=O)N2Cc3ccccc3CC[C@H]2C2CC2)C1=O [SYY-B018-2]
7 | – | – | – | 205 nM | 40 nM | 186 nM | 2.7 nM | CNC(=O)Nc1ccc2c(c1)CC[C@]21OC(=O)N(CC(=O)N2Cc3ccccc3CC[C@H]2C(C)C)C1=O [SYY-B019-1]
8 | – | – | – | 5 nM | 17 nM | 9 nM | 2 nM | CNC(=O)Nc1ccc2c(c1)CC[C@@]21OC(=O)N(CC(=O)N2Cc3ccccc3CC[C@H]2C(C)C)C1=O [SYY-B019-2]
9 | – | – | – | 107 nM | 32 nM | 63 nM | 3 nM | CNC(=O)Nc1ccc2c(c1)CC[C@]21OC(=O)N(CC(=O)N2Cc3ccc(F)cc3CC[C@H]2C)C1=O [SYY-B021-1]
10 | – | – | – | 24 nM | 22 nM | 13 nM | 3 nM | CNC(=O)Nc1ccc2c(c1)CC[C@@]21OC(=O)N(CC(=O)N2Cc3ccc(F)cc3CC[C@H]2C)C1=O [SYY-B021-2]
11 | – | – | – | 50 nM | 23 nM | 65 nM | 4 nM | CCC[C@@H]1CCc2ccccc2CN1C(=O)CN1C(=O)O[C@]2(CCc3cc(NC(=O)NC)ccc32)C1=O [SYY-B023-1]
12 | – | – | – | 3 nM | 12 nM | 4 nM | 2 nM | CCC[C@@H]1CCc2ccccc2CN1C(=O)CN1C(=O)O[C@@]2(CCc3cc(NC(=O)NC)ccc32)C1=O [SYY-B023-2]
13 | – | – | – | 77 nM | 116 nM | 53 nM | 24 nM | CCC[C@H]1CCc2ccccc2CN1C(=O)CN1C(=O)O[C@@]2(CCc3cc(NC(=O)NC)ccc32)C1=O [SYY-B024-2]
14 | – | – | – | 79 nM | 44 nM | 67 nM | 1.6 nM | CNC(=O)Nc1ccc2c(c1)CC[C@]21OC(=O)N(CC(=O)N2Cc3ccc(F)cc3CC[C@H]2C2CC2)C1=O [SYY-B025-1]
15 | – | – | – | 9 nM | 9 nM | 11 nM | 1.1 nM | CNC(=O)Nc1ccc2c(c1)CC[C@@]21OC(=O)N(CC(=O)N2Cc3ccc(F)cc3CC[C@H]2C2CC2)C1=O [SYY-B025-2]
16 | – | – | – | 358 nM | 254 nM | 132 nM | 18 nM | CNC(=O)Nc1ccc2c(c1)CC[C@@]21OC(=O)N(CC(=O)N2Cc3ccc(F)cc3CC[C@@H]2C2CC2)C1=O [SYY-B026-2]
17 | – | – | – | 23 nM | 13 nM | 14 nM | 3.1 nM | CNC(=O)Nc1ccc2c(c1)CC[C@@]21OC(=O)N(CC(=O)N2Cc3ccccc3CC[C@H]2C(F)(F)F)C1=O [SYY-B027-2]
18 | – | – | – | 146 nM | 66 nM | 82 nM | 4.1 nM | CNC(=O)Nc1ccc2c(c1)CC[C@]21OC(=O)N(CC(=O)N2Cc3cc(F)ccc3OC[C@H]2C2CC2)C1=O [SYY-B029-1]
19 | – | – | – | – | 15 nM | 13 nM | 1.4 nM | CNC(=O)Nc1ccc2c(c1)CC[C@@]21OC(=O)N(CC(=O)N2Cc3cc(F)ccc3OC[C@H]2C2CC2)C1=O [SYY-B029-2]
20 | – | – | – | 210 nM | 61 nM | 91 nM | 1.8 nM | CNC(=O)Nc1ccc2c(c1)CC[C@]21OC(=O)N(CC(=O)N2Cc3ccc(F)cc3CC[C@H]2C(F)(F)F)C1=O [SYY-B031-1]
21 | – | – | – | 23 nM | 18 nM | 66 nM | 1.9 nM | CNC(=O)Nc1ccc2c(c1)CC[C@@]21OC(=O)N(CC(=O)N2Cc3ccc(F)cc3CC[C@H]2C(F)(F)F)C1=O [SYY-B031-2]
22 | – | – | – | < 100 nM | – | < 100 nM | 3.4 nM | Cn1cc(-c2ccc3c(c2)CC[C@@]32OC(=O)N(CC(=O)N3Cc4ccc(F)cc4CC[C@H]3C3CC3)C2=O)cn1 [SYY-B041-2]
